Measured values: paper PMC9942807, “Structure–function correlates of fibrinogen binding by Acinetobacter adhesins critical in catheter-associated urinary tract infections” (Proceedings of the National Academy of Sciences of the …, 2023)

How the values were obtained:
[1] = target: T1, Abp2DRBD (Acinetobacter baumannii, UniProt A0A7U3Y091); assay: glycan microarray (CFG v5.[…]), biotinylated protein; assay type: binding; details: protein 50 μg/mL; glycan immobilised through spacer; labelled protein
T1 construct: gene ACICU_01810

[2] = target: T2, Abp1DRBD (Acinetobacter baumannii, UniProt A0A219C937); assay: glycan microarray (CFG v5.[…]), biotinylated protein; assay type: binding; details: protein 50 μg/mL; glycan immobilised through spacer; labelled protein
T2 construct: gene fimA_2

[3] = target: bovine submaxillary mucin (BSM); assay: BLI; details: parent: est. 0.65; read off a plot
[4] = target: bovine submaxillary mucin (BSM) (bovine); assay: BLI; biotinylated BSM loaded on streptavidin pins; Abp2DRBD constructs at 2.07 µM in 1× PBS + 2% BSA + 0.05% Tween-20; 300 s association, 300 s dissociation; end time point of association compared
[5] = target: T2, Abp1DRBD; assay: glycan microarray (CFG v5.[…]), biotinylated protein; assay type: binding; details: protein 50 μg/mL; glycan immobilised through spacer; labelled protein; remark: listed apart in the source

Substance	Abp2DRBD / Average RFU [1]	Abp1DRBD / Average RFU [2]	further results
Galb1-3GlcNAcb1-3Galb1-3GlcNAcb-Sp0 [compound 285]	28,674 ± 4,137 RFU	3,392 ± 319 RFU	–
Abp2D receptor-binding domain from ACICU (Abp2DRBD), wild type Y100A	–	–	response [3]: 0.46 nm
Neu5Aca2-3Galb1-4GlcNAcb1-2Mana-Sp0 [compound 470]	53,822 ± 4,116 RFU	6,747 ± 133 RFU	–
Fuca1-2Galb1-4(Fuca1-3)GlcNAcb1-2Mana1-6(Fuca1-2Galb1-4(Fuca1-3)GlcNAcb1-2Mana1-3)Manb1-4GlcNAcb1-4GlcNAb-Sp20 [compound 356]	58,018 ± 2,343 RFU	2,867 ± 192 RFU	–
Fuca1-2Galb1-4(Fuca1-3)GlcNAcb1-2Mana1-6(Fuca1-2Galb1-4(Fuca1-3)GlcNAcb1-4(Fuca1-2Galb1-4(Fuca1-3)GlcNAcb1-2)Mana1-3)Manb1-4GlcNAcb1-4GlcNAcb-Sp12 [compound 439]	30,667 ± 511 RFU	3,373 ± 55 RFU	–
Neu5Aca2-6Galb1-4GlcNAcb1-6GalNAca-Sp14 [compound 472]	54,517 ± 1,322 RFU	4,714 ± 450 RFU	–
Galb1-4(Fuca1-3)GlcNAcb1-2Mana1-6(Galb1-4(Fuca1-3)GlcNAcb1-2Mana1-3)Manb1-4GlcNAcb1-4(Fuca1-6)GlcNAcb-Sp22 [compound 412]	48,357 ± 11,791 RFU	2,932 ± 266 RFU	–
GlcNAcb1-3Galb1-4GlcNAcb1-3Galb1-4GlcNAcb1-2Mana1-6(GlcNAcb1-3Galb1-4GlcNAcb1-3Galb1-4GlcNAcb1-2Mana1-3)Manb1-4GlcNAcb1-4GlcNAcb-Sp12 [compound 535]	34,056 ± 4,827 RFU	4,735 ± 602 RFU	–
Abp2D receptor-binding domain from ACICU (Abp2DRBD), wild type R86A	–	–	response [3]: 0.66 nm
GlcNAcb1-3Galb1-4GlcNAcb1-6(GlcNAcb1-3Galb1-4GlcNAcb1-2)Mana1-6(GlcNAcb1-3Galb1-4GlcNAcb1-2Man a1-3)Manb1-4GlcNAcb1-4GlcNAc-Sp24 [compound 545]	39,436 ± 6,368 RFU	3,159 ± 350 RFU	–
Abp2D receptor-binding domain (ACICU) R102A (domain or fragment)	–	–	percent reduction of binding relative to Abp2DRBD WT [4]: 70%
Neu5Aca2-3Galb1-4GlcNAcb1-3Galb1-4GlcNAcb1-3Galb1-4GlcNAcb1-2Mana1-6(Neu5Aca2-3Galb1-4GlcNAcb1-3Galb1-4GlcNAcb1-3Galb1-4GlcNAcb1-2Mana1-3)Manb1-4GlcNAcb1-4GlcNAcb-Sp12 [compound 582]	–	–	Abp1DRBD / SD [5]: 9,786 ± 418 RFU
GlcNAcb1-3Galb1-4GlcNAcb1-2Mana1-6(GlcNAcb1-3Galb1-4GlcNAcb1-2Mana1-3)Manb1-4GlcNAcb1-4GlcNAcb-Sp12 [compound 531]	59,914 ± 1,963 RFU	6,977 ± 1,001 RFU	–
Abp2D receptor-binding domain from ACICU (Abp2DRBD), wild type R86E	–	–	response [3]: 0.02 nm
Abp2D receptor-binding domain (ACICU) Y141A (domain or fragment)	–	–	percent reduction of binding relative to Abp2DRBD WT [4]: 90%
